Data: patent US12552846B2, “Modified BCL9 mimetic peptides” (Sapience Therapeutics, Inc., priority 2019, dated 2026)
Square brackets hold non-standard residues; d marks the D form. Peptide text beside a SMILES is read from it.

These compounds were tested on HL60 promyelocytic leukemia cells (assay: Cytotoxicity assay in HL60 cells (Annexin V FITC / PI flow cytometry)). Settings: 48 hours, 0-80 μM, % Viability (Annexin V low, PI low).
Type: cell-based
Procedure: We examined the cytotoxicity of peptides BCL-26 and BCL-27 using an assay in HL60 promyelocytic leukemia cells. HL60 PML suspension cells were set at a density of 3.5×10^3 cells/well in 150 μL of RPMI+1.5% fetal bovine serum (FBS) in a 96 well dish. BCL-26 or BCL-27, reconstituted at a concentration of 10 mg/mL in 20 mM His, pH 7.5, was added to each well at a volume of 50 μL to a final concentration range of 0-80 μM. Cells were incubated with peptide for 48 hours at 37° C. Cell viability was quantified by flow cytometry using abcam Annexin V FITC apoptosis detection kit. Briefly, cells were washed with PBS and resuspended in 1× assay buffer containing Annexin V FITC and propidium iodide (PI). Annexin V detects apoptotic cells, and PI stains dead cells. After staining, apoptotic cells show green fluorescence, dead cells show red and green fluorescence, and live cells show little or no fluorescence. Cells were selected for analysis based on forward scatter (FSC) vs. side scatter (SSC), and analyzed by BD Accuri C6 Plus flow cytometer to detect Annexin V-FITC binding (Ex=488 nm; Em=530 nm) using FITC signal detector and PI staining by the phycoerythrnn emission signal detector. Percentage of Annexin V^low and PI^low were quantified and presented as % Viability.
We examined the cytotoxicity of additional retro inverso and mixed chirality BCL9 mimetic peptides in HL60 cells using the assay described above.

First: CC(C)C[C@@H](NC(=O)[C@@H](Cc1c[nH]c2ccccc12)NC(=O)[C@@H](N)Cc1c[nH]c2ccccc12)C(=O)N[C@H](C)C(=O)N[C@H](CCCNC(=N)N)C(=O)N[C@H](CCC(N)=O)C(=O)N[C@H](CC(C)C)C(=O)N[C@H](CCC(=O)O)C(=O)N[C@H](CCCNC(=N)N)C(=O)N[C@H](CC(C)C)C(=O)N[C@H](CCCNC(=N)N)C(=O)N[C@H](CCCNC(=N)N)C(=O)N[C@H](CC(C)C)C(=O)N[C@H](C)C(=O)N[C@H](CCCCN)C(=O)N[C@H](CC(C)C)C(=O)N[C@@H](C(=O)N1CCC[C@@H]1C(=O)N[C@@H](C(=O)O)C(C)C)[C@H](C)O [BCL-97] (H-W[dW][dL][dA][dR][dQ][dL][dE][dR][dL][dR][dR][dL][dA][dK][dL][dT][dP][dV]-OH; N-terminus and C-terminus assumed)
Second: CC(C)C[C@@H](NC(=O)[C@@H](Cc1c[nH]c2ccccc12)NC(=O)[C@@H](N)Cc1c[nH]c2ccccc12)C(=O)N[C@H](C)C(=O)N[C@H](CCCNC(=N)N)C(=O)N[C@H](CCC(N)=O)C(=O)N[C@H](CC(C)C)C(=O)N[C@H](CCC(=O)O)C(=O)N[C@H](CCCNC(=N)N)C(=O)N[C@H](CC(C)C)C(=O)N[C@H](C)C(=O)N[C@H](CCCNC(=N)N)C(=O)N[C@H](CC(C)C)C(=O)N[C@H](C)C(=O)N[C@H](CCCCN)C(=O)N[C@H](CC(C)C)C(=O)N[C@@H](C(=O)N1CCC[C@@H]1C(=O)N[C@@H](C(=O)O)C(C)C)[C@H](C)O [BCL-98] (H-W[dW][dL][dA][dR][dQ][dL][dE][dR][dL][dA][dR][dL][dA][dK][dL][dT][dP][dV]-OH; N-terminus and C-terminus assumed)
The EC50 of the first is lower: less than 2000 nM for the first, 2000 to 10000 nM for the second.

First: CC(C)C[C@@H](NC(=O)[C@@H](Cc1c[nH]c2ccccc12)NC(=O)[C@@H](N)Cc1ccccc1)C(=O)N[C@H](C)C(=O)N[C@H](CCCNC(=N)N)C(=O)N[C@H](CCC(N)=O)C(=O)N[C@H](CC(C)C)C(=O)N[C@H](C)C(=O)N[C@H](CCCNC(=N)N)C(=O)N[C@H](CC(C)C)C(=O)N[C@H](C)C(=O)N[C@H](CCC(N)=O)C(=O)N[C@H](CC(C)C)C(=O)N[C@H](C)C(=O)N[C@H](CCCCN)C(=O)N[C@H](CC(C)C)C(=O)N[C@@H](C(=O)N1CCC[C@@H]1C(=O)N[C@@H](C(=O)O)C(C)C)[C@H](C)O [BCL-99] (H-F[dW][dL][dA][dR][dQ][dL][dA][dR][dL][dA][dQ][dL][dA][dK][dL][dT][dP][dV]-OH; N-terminus and C-terminus assumed)
Second: CC(C)C[C@@H](NC(=O)[C@@H](Cc1c[nH]c2ccccc12)NC(=O)[C@H](CCCNC(=N)N)NC(=O)[C@H](N)Cc1ccccc1)C(=O)N[C@H](C)C(=O)N[C@H](CCCNC(=N)N)C(=O)N[C@H](CCC(N)=O)C(=O)N[C@H](CC(C)C)C(=O)N[C@H](C)C(=O)N[C@H](CCCNC(=N)N)C(=O)N[C@H](CC(C)C)C(=O)N[C@H](C)C(=O)N[C@H](CCC(N)=O)C(=O)N[C@H](CC(C)C)C(=O)N[C@H](C)C(=O)N[C@H](CCCCN)C(=O)N[C@H](CC(C)C)C(=O)N[C@@H](C(=O)N1CCC[C@@H]1C(=O)N[C@@H](C(=O)O)C(C)C)[C@H](C)O [BCL-129] (H-[dF]R[dW][dL][dA][dR][dQ][dL][dA][dR][dL][dA][dQ][dL][dA][dK][dL][dT][dP][dV]-OH; N-terminus and C-terminus assumed)
The EC50 of the first is higher: 2000 to 10000 nM for the first, less than 2000 nM for the second.

`CC(C)C[C@@H](NC(=O)[C@@H](Cc1c[nH]c2ccccc12)NC(=O)[C@@H](N)CCCNC(=N)N)C(=O)N[C@H](C)C(=O)N[C@H](CCCNC(=N)N)C(=O)N[C@H](CCC(N)=O)C(=O)N[C@H](CC(C)C)C(=O)N[C@H](C)C(=O)N[C@H](CCCNC(=N)N)C(=O)N[C@H](CC(C)C)C(=O)N[C@H](C)C(=O)N[C@H](CCC(N)=O)C(=O)N[C@H](CC(C)C)C(=O)N[C@H](C)C(=O)N[C@H](CCCCN)C(=O)N[C@H](CC(C)C)C(=O)N[C@@H](C(=O)N1CCC[C@@H]1C(=O)N[C@@H](C(=O)O)C(C)C)[C@H](C)O` [BCL-100] (H-R[dW][dL][dA][dR][dQ][dL][dA][dR][dL][dA][dQ][dL][dA][dK][dL][dT][dP][dV]-OH; N-terminus and C-terminus assumed) and `CC(C)C[C@@H](NC(=O)[C@@H](CCCNC(=N)N)NC(=O)[C@@H](C)NC(=O)[C@@H](CC(C)C)NC(=O)[C@@H](CCC(N)=O)NC(=O)[C@@H](CCCNC(=N)N)NC(=O)[C@H](NC(=O)[C@@H](CC(C)C)NC(=O)[C@@H](Cc1c[nH]c2ccccc12)NC(=O)[C@H](CCCNC(=N)N)NC(=O)[C@H](N)Cc1ccccc1)C(C)C)C(=O)N[C@H](C)C(=O)N[C@H](CCC(N)=O)C(=O)N[C@H](CC(C)C)C(=O)N[C@H](C)C(=O)N[C@H](CCCCN)C(=O)N[C@H](CC(C)C)C(=O)N[C@@H](C(=O)N1CCC[C@@H]1C(=O)N[C@@H](C(=O)O)C(C)C)[C@H](C)O` [BCL-130] (H-[dF]R[dW][dL][dV][dR][dQ][dL][dA][dR][dL][dA][dQ][dL][dA][dK][dL][dT][dP][dV]-OH; N-terminus and C-terminus assumed) cannot be ordered by EC50: less than 2000 nM for the first, less than 2000 nM for the second.

`CC(C)C[C@@H](NC(=O)[C@@H](Cc1c[nH]c2ccccc12)NC(=O)[C@H](Cc1c[nH]c2ccccc12)NC(=O)[C@H](N)Cc1ccccc1)C(=O)N[C@H](C)C(=O)N[C@H](CCCNC(=N)N)C(=O)N[C@H](CCC(N)=O)C(=O)N[C@H](CC(C)C)C(=O)N[C@H](C)C(=O)N[C@H](CCCNC(=N)N)C(=O)N[C@H](CC(C)C)C(=O)N[C@H](C)C(=O)N[C@H](CCC(N)=O)C(=O)N[C@H](CC(C)C)C(=O)N[C@H](C)C(=O)N[C@H](CCCCN)C(=O)N[C@H](CC(C)C)C(=O)N[C@@H](C(=O)N1CCC[C@@H]1C(=O)N[C@@H](C(=O)O)C(C)C)[C@H](C)O` [BCL-101] (H-[dF]W[dW][dL][dA][dR][dQ][dL][dA][dR][dL][dA][dQ][dL][dA][dK][dL][dT][dP][dV]-OH; N-terminus and C-terminus assumed) and `CC(C)C[C@@H](NC(=O)[C@@H](CCCNC(=N)N)NC(=O)[C@@H](C)NC(=O)[C@@H](CC(C)C)NC(=O)[C@@H](CCC(N)=O)NC(=O)[C@@H](CCCNC(=N)N)NC(=O)[C@H](NC(=O)[C@@H](CC(C)C)NC(=O)[C@@H](Cc1c[nH]c2ccccc12)NC(=O)[C@H](Cc1c[nH]c2ccccc12)NC(=O)[C@H](N)Cc1ccccc1)C(C)C)C(=O)N[C@H](C)C(=O)N[C@H](CCC(N)=O)C(=O)N[C@H](CC(C)C)C(=O)N[C@H](C)C(=O)N[C@H](CCCCN)C(=O)N[C@H](CC(C)C)C(=O)N[C@@H](C(=O)N1CCC[C@@H]1C(=O)N[C@@H](C(=O)O)C(C)C)[C@H](C)O` [BCL-131] (H-[dF]W[dW][dL][dV][dR][dQ][dL][dA][dR][dL][dA][dQ][dL][dA][dK][dL][dT][dP][dV]-OH; N-terminus and C-terminus assumed) cannot be ordered by EC50: less than 2000 nM for the first, less than 2000 nM for the second.

`CC(C)C[C@@H](NC(=O)[C@@H](CCCNC(=N)N)NC(=O)[C@@H](C)NC(=O)[C@@H](CC(C)C)NC(=O)[C@@H](CCC(N)=O)NC(=O)[C@@H](CCCNC(=N)N)NC(=O)[C@@H](CC(C)C)NC(=O)[C@@H](CC(C)C)NC(=O)[C@@H](Cc1c[nH]c2ccccc12)NC(=O)[C@H](N)Cc1c[nH]c2ccccc12)C(=O)N[C@H](C)C(=O)N[C@H](CCC(N)=O)C(=O)N[C@H](CC(C)C)C(=O)N[C@H](C)C(=O)N[C@H](CCCCN)C(=O)N[C@H](CC(C)C)C(=O)N[C@@H](C(=O)N1CCC[C@@H]1C(=O)N[C@@H](C(=O)O)C(C)C)[C@H](C)O` [BCL-128] (H-[dW][dW][dL][dL][dR][dQ][dL][dA][dR][dL][dA][dQ][dL][dA][dK][dL][dT][dP][dV]-OH; N-terminus and C-terminus assumed) and `CC(C)C[C@@H](NC(=O)[C@@H](C)NC(=O)[C@@H](C)NC(=O)[C@@H](CC(C)C)NC(=O)[C@@H](CCCNC(=N)N)NC(=O)[C@@H](C)NC(=O)[C@@H](CC(C)C)NC(=O)[C@@H](CCC(N)=O)NC(=O)[C@@H](CCCNC(=N)N)NC(=O)[C@@H](C)NC(=O)[C@@H](CC(C)C)NC(=O)[C@@H](Cc1c[nH]c2ccccc12)NC(=O)[C@H](Cc1c[nH]c2ccccc12)NC(=O)[C@H](N)Cc1ccccc1)C(=O)N[C@H](C)C(=O)N[C@H](CCCCN)C(=O)N[C@H](CC(C)C)C(=O)N[C@@H](C(=O)N1CCC[C@@H]1C(=O)N[C@@H](C(=O)O)C(C)C)[C@H](C)O` [BCL-132] (H-[dF]W[dW][dL][dA][dR][dQ][dL][dA][dR][dL][dA][dA][dL][dA][dK][dL][dT][dP][dV]-OH; N-terminus and C-terminus assumed) cannot be ordered by EC50: less than 2000 nM for the first, less than 2000 nM for the second.

Work on `CC(C)C[C@@H](NC(=O)[C@@H](C)NC(=O)[C@@H](C)NC(=O)[C@@H](CC(C)C)NC(=O)[C@@H](CCC(N)=O)NC(=O)[C@@H](CCCNC(=N)N)NC(=O)[C@@H](C)NC(=O)[C@@H](CC(C)C)NC(=O)[C@@H](Cc1c[nH]c2ccccc12)NC(=O)[C@H](Cc1c[nH]c2ccccc12)NC(=O)[C@H](N)Cc1ccccc1)C(=O)N[C@H](C)C(=O)N[C@H](CCC(N)=O)C(=O)N[C@H](CC(C)C)C(=O)N[C@H](C)C(=O)N[C@H](CCCCN)C(=O)N[C@H](CC(C)C)C(=O)N[C@@H](C(=O)N1CCC[C@@H]1C(=O)N[C@@H](C(=O)O)C(C)C)[C@H](C)O` [BCL-133] (H-[dF]W[dW][dL][dA][dR][dQ][dL][dA][dA][dL][dA][dQ][dL][dA][dK][dL][dT][dP][dV]-OH; N-terminus and C-terminus assumed) yielded an EC50 of less than 2000 nM.
